Test results published in patent publication US4880826A, “Melatonin antagonist” (priority 1986, dated 1989).

Columns and labels:
prepubertal male rats = assay: Long-term administration to prepubertal male rats: accessory sex organ development and testosterone; assay type: in vivo, rat
Text: (1) Long-term administration of melatonin (via the drinking water or via intraperitoneal injection) to prepubertal male rats results in retardation of testicular accessory sex organ development.
(4) Long-term administration of ML-23 alone to prepubertal male rats, enhanced testosterone levels in the blood of the animals.

adult female rats = assay: Melatonin block of luteinizing hormone secretion and ovulation in adult female rats at proestrus; assay type: in vivo, rat
Text: (2) Melatonin administration to adult female rats in the afternoon of proestrus blocks the phasic secretion of luteinizing hormone and ovulation.

[1] = test system: Female rats kept under constant illumination; assay: Ovarian cyclicity of female rats kept under constant illumination; assay type: in vivo, rat
Melatonin receptor = Melatonin receptor assay using 2-125I-iodo-ML-23; assay type: binding, rat; conditions: female rats: hypothalamus, medulla-pons, hippocampus, cerebellum, striatum, parietal cortex
Protocol: Tissue sections or isolated cells were suspended in 10 ml/g ice-cold 0.32M sucrose, homogenized in a teflon-glass homogenizer. The homogenate was centrifuged (10000 g-min) the pellet was discarded and the supernatant centrifuged (68000 g-min). The crude membrane pellet was suspended in 2 vol of 50 mM Tris-HCL buffer, pH 7.4 containing 4 mM CaCl2. 2-^125 I-iodo-ML-23 was prepared by iodination of ML-23 with Na^125 I (Amersham) (20 CI/mmol) in the presence of Iodo-Gen. The principal iodination product, 2-^125 I-iodo-ML 23 (^125 I-MLI-23) was separated from unsubstituted ML-23 as described in Example 2. Aliquots of the membrane preparations (200 μg protein/20 μl) were incubated with 40 μl Trisbuffer containing 20-100 nM ^125 I-MLI-23 for 30 min. at 37° C. on a shaking water bath, in the absence or presence of unlabelled melatonin (50 μM). Membranes were then collected by vacuum filtration using GF/C glass fiber filters and washed with 3×4 ml buffer at 4° C. The filters containing bound ^125 I-ML-23 were assayed for radioactivity using a Packard gamma counter. Specific binding was defined as that displaced by 50 μM of non-radioactive melatonin and ranged from 50 to 60% of the total binding at 50 nM ^125 I-MLI-23. […]

rat hypothalamus = conditions: cited from earlier work
[2] = oral administration in the presence of melatonin

SMILES: COc1ccc2[nH]cc(CCNc3ccc([N+](=O)[O-])cc3[N+](=O)[O-])c2c1 [ML-23, N-2,4-dinitrophenyl-5-methoxy-tryptamine]
- testosterone levels in the blood (prepubertal male rats; long-term administration alone): enhanced
- effect on melatonin's suppressive effects on prostate and seminal vesicle growth (prepubertal male rats; [2]): entirely abolished
- effect on melatonin's suppressive effects on serum testosterone levels (prepubertal male rats; [2]): entirely abolished
- effect on melatonin block of luteinizing hormone secretion and ovulation (adult female rats; via the drinking water, female rats given melatonin): prevented the effect of melatonin and normal ovulation occurred
- ovarian cyclicity re-established by daily melatonin injections ([1]; rats treated orally with the antagonist, constant illumination): not in rats treated orally with ML-23

SMILES: COc1ccc2[nH]c([125I])c(CCNc3ccc([N+](=O)[O-])cc3[N+](=O)[O-])c2c1 [^125 I-MLI-23]
- specific binding in brain regions (Melatonin receptor): found

SMILES: COc1ccc2[nH]cc(CCNC(C)=O)c2c1 [melatonin, 5-methoxy-N-acetyl-tryptamine]
- testicular accessory sex organ development (prepubertal male rats; long-term administration via the drinking water or intraperitoneal injection): retardation
- phasic secretion of luteinizing hormone and ovulation (adult female rats; administration in the afternoon of proestrus, adult female rats): blocks
- ovarian cyclicity ([1]; daily melatonin injections, female rats under constant illumination): reestablish ovarian cyclicity
- stimulated release of dopamine (rat hypothalamus): inhibits
